From US10350199B2, “3-(1h-pyrrolo[2,3-b]pyridin-2-yl)-1h-indazoles and therapeutic uses thereof” (Samumed, LLC, priority 2015, dated 2019) come the findings set out here.

A value given as a limit tells only on which side of the number the result lay.

What is called EC50 is the midpoint of the concentration-response curve. The low end stands for greater potency, the high end for weaker potency. In general, inhibition refers to the drop in the measured response relative to a control, in per cent.

What all share (type): cell-based
The test system of assay [1] is IL-6 (THP-1 human monocyte cell line). Kind of assay: IL-6 inhibition in LPS-stimulated THP-1 cells (HTRF). The conditions noted are these: for EC50: IL-6 inhibition, LPS-stimulated THP-1 cells, HTRF; for inhibition at 10 µM: THP-1, read-out: percentage in parentheses beside EC50 >10 (IL-6 inhibition). Here is the method:
THP-1 cells were cultured in basal media with 1% FBS for 24 hours before the start of the assay. […] THP-1 cells were plated at 5000 cells/well in the 384-well plates and incubated at 37° C. for 2 h. 500 ng/mL of LPS was added after 2 hours and cells were incubated for another 22 hours at 37° C. Plates were spun in a centrifuge for 1 minute at […] and a mixture of anti-IL6 XL665, and anti-IL6 Cryptate diluted in reconstitution buffer (Cisbio Inc.) was added to each well. Following incubation for 3 hrs at room temperature, Homogeneous Time-Resolved Fluorescence (HTRF) was measured using the Envision (Perkin Elmer) at 665 nm and […]. The ratio of fluorescence at 665 nm to 620 nm was used as a readout for IL6 quantification. All samples were processed in duplicate. Readings were normalized to DMSO treated cells and normalized activities were utilized for EC50 calculations using the dose-response log (inhibitor) vs. response -variable slope (four parameters) nonlinear regression feature available in GraphPad Prism 5.0 (or Dotmatics).
A general note: In TR-FRET formats the signal depends on donor and acceptor labels being close together.

Assay [2] deals with Wnt activity (Sp5-Luc reporter, SW480 colon carcinoma cells). Kind of assay: Wnt activity screening assay, Sp5-Luc reporter gene in SW480 cells. The conditions noted are these: Homo sapiens; for inhibition at 10 µM: SW480, read-out: percent inhibition at 10 μM; for EC50: Sp5-Luc reporter, SW480 cells, overnight incubation. The text has this: The screening assay for Wnt activity is described as follows. Reporter cell lines can be generated by stably transducing cancer cell lines (e.g., colon cancer) or primary cells (e.g., IEC-6 intestinal cells) with a lentiviral construct that includes a Wnt-responsive promoter driving expression of the firefly luciferase gene.
SW480 colon carcinoma cells were transduced with a lentiviral vector expressing luciferase with a human Sp5 promoter consisting of a sequence of eight TCF/LEF binding sites. SW480 cells stably expressing the Sp5-Luc reporter gene and a hygromycin resistance gene were selected by treatment with 150 μg/mL of hygromycin for 7 days. These stably transduced SW480 cells were expanded in cell culture and used for all further screening activities. […] For Sp5-Luc reporter gene assays, the cells were plated at 4,000 cells/well in 384-well plates with medium containing 1% fetal bovine serum and incubated overnight at 37° C. and 5% CO2. Following incubation, 20 μl of BrightGlo luminescence reagent (Promega) was added to each well of the 384-well assay plates. The plates were placed on an orbital shaker for 2 min and then luminescence was quantified using the Envision (Perkin Elmer) plate reader. Readings were normalized to DMSO only treated cells, and normalized activities were utilized for EC50 calculations using the dose-response log (inhibitor) vs. response -variable slope (four parameters) nonlinear regression feature available in GraphPad Prism 5.0 (or Dotmatics).
For orientation: In a reporter assay the amount or activity of a reporter protein is the signal.

A further assay has as its system SW480 colon cancer cells. Kind of assay: Cell viability assay (CellTiter-Blue), SW480 cells, four days. Particulars: Homo sapiens; for EC50: 96 h, SW480 cell viability, four days, CellTiter-Blue; for inhibition at 10 µM: SW480, read-out: percent inhibition at 10 μM. Here is the method:
Representative compounds were screened using the following assay procedure to assess the effect on cell viability as described below.
Approximately 2×10^3 SW480 colon cancer cells were seeded into each well and allowed to incubate in the presence or absence of compound for four days at 37° C./5% CO2. Eight replicates of DMSO-treated cells served as controls and cells treated with compound were performed in duplicate.
After incubation, 20 μL of CellTiter-Blue (Promega) was added to each well allowed to incubate for approximately 3 hours. This reagent was a buffered solution which contains resazurin, metabolically active cells were able to reduce rezarurin (blue) into resorufin (pink) which was highly fluorescent. This measured fluorescence was used as a readout for cell viability.

For assay [3], the system named is primary human fibroblasts derived from IPF patients (LL29 cells) treated with TGF-β1. Kind of assay: Inhibition of the fibrotic process: αSMA staining in TGF-β1 treated LL29 fibroblasts. The conditions noted are these: Fibroblast; for EC50: 96 h, LL29 cells, TGF-β1 20 ng/mL, 4 days, % αSMA positive cells; for inhibition at 10 µM: read-out: percent inhibition at 10 μM. As for the experimental part: Representative compounds were screened using primary human fibroblasts (derived from IPF patients) treated with TGF-β1 to determine their ability to inhibit the fibrotic process.
LL29 cells are plated at 1,500 cells/well in 80 μL/well F12 medium supplemented with 1% Fetal Bovine Serum. […] Wells treated with TGF-β1 and containing DMSO were used as controls. […] Following incubation for 4 days, SYTOX green nucleic acid stain (Life Technologies [Thermo Fisher Scientific]) was added to the wells at a final concentration of 1 μM and incubated at room temperature for 30 min.

As to `CC(C)(C)CC(=O)Nc1cncc(-c2ccc3[nH]nc(-c4cc5c(-c6ccccc6F)ccnc5[nH]4)c3c2)c1` [Compound 72, N-(5-(3-(4-(2-Fluorophenyl)-1H-pyrrolo[2,3-b]pyridin-2-yl)-1H-indazol-5-yl)pyridin-3-yl)-3,3-dimethylbutanamide], the EC50 (in assay [1]; in assay [2]; in the assay on SW480 colon cancer cells; in assay [3]) was > 10 µM in each case. Moreover, the inhibition at 10 µM was 10.5% in assay [1], 9.3% in assay [2], 12.6% in the assay with SW480 colon cancer cells and 5.4% in assay [3].
In the case of `CCCCC(=O)Nc1cncc(-c2ccc3[nH]nc(-c4cc5c(-c6ccccc6F)ccnc5[nH]4)c3c2)c1` [Compound 75, N-(5-(3-(4-(2-Fluorophenyl)-1H-pyrrolo[2,3-b]pyridin-2-yl)-1H-indazol-5-yl)pyridin-3-yl)pentanamide], the EC50 (in assay [1]; in assay [2]; in the assay on SW480 colon cancer cells; in assay [3]) was > 10 µM throughout. Also, the inhibition at 10 µM in assay [1] worked out at 38.2%; in assay [2], 13%; in the assay with SW480 colon cancer cells it was 16.8%; in assay [3] it was 29.1%.
For the compound `O=C(Nc1cncc(-c2ccc3[nH]nc(-c4cc5c(-c6ccccc6F)ccnc5[nH]4)c3c2)c1)C1CCCC1` [Compound 78, N-(5-(3-(4-(2-Fluorophenyl)-1H-pyrrolo[2,3-b]pyridin-2-yl)-1H-indazol-5-yl)pyridin-3-yl)cyclopentanecarboxamide], the EC50 (in assay [1]; in assay [2]; in the assay with SW480 colon cancer cells; in assay [3]) was > 10 µM in each case. Further, the inhibition at 10 µM in assay [1] worked out at 39.9%; in assay [2], 1.9%; in the assay with SW480 colon cancer cells it was 14.4%; in assay [3] it was 39%.
For `O=C(Cc1ccccc1)Nc1cncc(-c2ccc3[nH]nc(-c4cc5c(-c6ccncc6)ccnc5[nH]4)c3c2)c1` [Compound 122, 2-Phenyl-N-(5-(3-(4-(pyridin-4-yl)-1H-pyrrolo[2,3-b]pyridin-2-yl)-1H-indazol-5-yl)pyridin-3-yl)acetamide], the EC50 was > 10 µM in assay [1], > 10 µM in assay [2], 1.95 µM with SW480 colon cancer cells and 6.18 µM in assay [3]. The values for the inhibition at 10 µM in assay [1] and in assay [2] were 47.3% and 28.3%, respectively.
As to `CCC(=O)Nc1cncc(-c2ccc3[nH]nc(-c4cc5c(-c6ccccn6)ccnc5[nH]4)c3c2)c1` [Compound 141, N-(5-(3-(4-(Pyridin-2-yl)-1H-pyrrolo[2,3-b]pyridin-2-yl)-1H-indazol-5-yl)pyridin-3-yl)propionamide], the EC50 in assay [1] was > 10 µM; in assay [2] it was 0.238 µM; in the assay on SW480 colon cancer cells, 6.07 µM; in assay [3] it was 1.66 µM. The inhibition at 10 µM in assay [1] was determined as 30.3%.
Take `O=C(Nc1cncc(-c2ccc3[nH]nc(-c4cc5c(-c6ccccn6)ccnc5[nH]4)c3c2)c1)C1CCCCC1` [Compound 163, N-(5-(3-(4-(Pyridin-2-yl)-1H-pyrrolo[2,3-b]pyridin-2-yl)-1H-indazol-5-yl)pyridin-3-yl)cyclohexanecarboxamide]: the EC50 in assay [1] is 1.54 µM; in assay [2], > 10 µM; in the assay on SW480 colon cancer cells it was > 10 µM; in assay [3] it was > 10 µM. Besides, the results for the inhibition at 10 µM (in assay [2]; in the assay on SW480 colon cancer cells; in assay [3]) were 38.8%, 11.1% and 0%, respectively.
As for `CCC(=O)Nc1cncc(-c2ccc3[nH]nc(-c4cc5c(N6CCCCC6)ccnc5[nH]4)c3c2)c1` [Compound 169, N-(5-(3-(4-(Piperidin-1-yl)-1H-pyrrolo[2,3-b]pyridin-2-yl)-1H-indazol-5-yl)pyridin-3-yl)propionamide], the EC50 in assay [1] is > 10 µM; in assay [2], 1.22 µM; with SW480 colon cancer cells, > 10 µM; in assay [3] it was > 10 µM. Further, the inhibition at 10 µM was determined as 33% in assay [1], 38.1% in the assay with SW480 colon cancer cells and 11.6% in assay [3].
For `CN(C)c1cncc(-c2ccc3[nH]nc(-c4cc5c(N6CCCCC6)ccnc5[nH]4)c3c2)c1` [Compound 175, N,N-Dimethyl-5-(3-(4-(piperidin-1-yl)-1H-pyrrolo[2,3-b]pyridin-2-yl)-1H-indazol-5-yl)pyridin-3-amine], the concentration giving a half-maximal response (EC50) (in assay [1]; in assay [2]; in the assay on SW480 colon cancer cells; in assay [3]) was > 10 µM throughout. Moreover, the inhibition at 10 µM was 15.2% in assay [1], 10.7% in assay [2], 13.1% in the assay on SW480 colon cancer cells and 11.3% in assay [3].
Take `O=C(Cc1ccccc1)Nc1cncc(-c2ccc3[nH]nc(-c4cc5c(N6CCCCC6)ccnc5[nH]4)c3c2)c1` [Compound 178, 2-Phenyl-N-(5-(3-(4-(piperidin-1-yl)-1H-pyrrolo[2,3-b]pyridin-2-yl)-1H-indazol-5-yl)pyridin-3-yl)acetamide]: the EC50 (in assay [1]; in assay [2]; with SW480 colon cancer cells; in assay [3]) was > 10 µM throughout. In addition, the inhibition at 10 µM in assay [1] turned out to be 36.5%; in assay [2], 13.8%; in the assay on SW480 colon cancer cells it was 18.7%; in assay [3], 0%.
With `CN(C)Cc1cncc(-c2ccc3[nH]nc(-c4cc5c(N6CCCCC6)ccnc5[nH]4)c3c2)c1` [Compound 181, N,N-Dimethyl-1-(5-(3-(4-(piperidin-1-yl)-1H-pyrrolo[2,3-b]pyridin-2-yl)-1H-indazol-5-yl)pyridin-3-yl)methanamine], the concentration giving a half-maximal response (EC50) (in assay [1]; in assay [2]; in the assay with SW480 colon cancer cells; in assay [3]) was > 10 µM in each case. Further, the inhibition at 10 µM was 29% in assay [1], 26.2% in assay [2], 17.6% in the assay on SW480 colon cancer cells and 9.1% in assay [3].
As to `CC(C)(C)CC(=O)Nc1cncc(-c2ccc3[nH]nc(-c4cc5c(N6CCCCC6)ccnc5[nH]4)c3c2)c1` [Compound 184, 3,3-Dimethyl-N-(5-(3-(4-(piperidin-1-yl)-1H-pyrrolo[2,3-b]pyridin-2-yl)-1H-indazol-5-yl)pyridin-3-yl)butanamide], the EC50 in assay [1] was 3.99 µM; in assay [2] it was > 10 µM; with SW480 colon cancer cells, > 10 µM; in assay [3], > 10 µM. In addition, the inhibition at 10 µM in assay [2] amounted to 11.9%; in the assay with SW480 colon cancer cells, 1.6%.
Take `O=C(Nc1cncc(-c2ccc3[nH]nc(-c4cc5c(N6CCCCC6)ccnc5[nH]4)c3c2)c1)C1CC1` [Compound 188, N-(5-(3-(4-(Piperidin-1-yl)-1H-pyrrolo[2,3-b]pyridin-2-yl)-1H-indazol-5-yl)pyridin-3-yl)cyclopropanecarboxamide]: the EC50 (in assay [1]; in assay [2]; in the assay with SW480 colon cancer cells; in assay [3]) was > 10 µM each time. Moreover, the inhibition at 10 µM in assay [1] worked out at 4.1%; in assay [2] it was 27.6%; in the assay with SW480 colon cancer cells, 12.9%; in assay [3] it was 17.4%.
